Experimental findings from PMC12118597 (Science Advances, 2025) are described below.

In experiment [1] the target is T1, SARS-CoV-2 NSP3 macrodomain (Mac1) (Severe acute respiratory syndrome coronavirus 2, UniProt P0DTD1). Format: binding. The note with it: for PanDDA run, TFA/DMSO background map: 1-BDC / PanDDA run, TFA/DMSO background map: Hit: crystal soak 10 mM; for Number of isomers bound: ligand modeling, Mac1 crystal soak.
Experiment [2] concerns the target T1, SARS-CoV-2 NSP3 macrodomain (Mac1). Description: biochemical. The note with it: for Average % competition: Single dose, concentration 200 μM. It counts as binding.
Where [3] appears, read: stereoisomer(s)/conformations of the soaked ligand modeled in the Mac1 crystal structure.
[4] abbreviates: SARS CoV-2 macrodomain HTRF assay.
[5] abbreviates: SARS CoV-2 macrodomain HTRF assay, dose-response, read-out: IC50.
The mark [6] stands for this setting: compound at 200 μM, mean of three to four technical replicates, read-out: % competition at 200 μM (preliminary HTRF screen).
Setting [7] is: stereoisomer(s) modeled as bound, residues 201/202/203.
The mark [8] stands for this setting: read-out: IC50 (confirmatory HTRF dose-response screen).
Setting [9] is: SARS CoV-2 macrodomain HTRF assay, single dose concentration 200 μM, read-out: Average % competition.

Where two headings read alike, the source gives them in different places.

As usually defined, the Ki is a measure of affinity in units of concentration, obtained from inhibition or displacement. The term IC50 denotes the concentration needed to halve the response being measured. `O[C@H]1CC[C@H]2CCN(c3ncnc4[nH]ccc34)[C@H]21` [AVI-5997]: the Isomers modeled result in experiment [1] (setting [3]) is reported as “SSR”. Moreover, in experiment [2] (setting [4]), the Ki was found to be 34 µM and the “Ligand efficiency (binding enery per heavy atom)” value amounted to 0.34. Besides, the IC50 in experiment [2] (setting [5]) was 37 µM.

Turning to `OCC(CC(O)c1ccccc1)Nc1ncnc2[nH]ccc12` (stereo not shown) [AVI-3642], in experiment [1], the “PanDDA run, TFA/DMSO background map: 1-BDC” value amounted to 0.17; the “PanDDA run, TFA/DMSO background map: Hit” value was “TRUE”; the “Number of isomers bound” value was 1. This compound also came in with an Average % competition in experiment [2] of less than 10%. Further, the inhibition at 200 µM in experiment [2] (setting [6]) was less than 10%.

Regarding `OCC(Cc1ccccc1)Nc1ncnc2[nH]ccc12` (stereo not shown) [AVI-313], the “Number of isomers bound” value in experiment [1] was found to be 2. In addition, the Isomers modeled result in experiment [1] (setting [7]) is “S,R”. Further, the “Ligand efficiency (binding enery per heavy atom)” value in experiment [2] stood at 0.27. In experiment [2] (dose-response), this compound gave a Ki of 120 µM. For the same compound, in experiment [2] (setting [8]), the IC50 is 130 µM.

Turning to `O=C(O)C(F)(F)F.OC[C@H]1CC2(CN1c1ncnc3[nH]ccc13)OCCO2` [AVI-3702], in experiment [1], the “PanDDA run, TFA/DMSO background map: 1-BDC” value is on record as 0.13; the “PanDDA run, TFA/DMSO background map: Hit” value is “TRUE”; the “Number of isomers bound” value is 1. In addition, the inhibition at 200 µM in experiment [2] (setting [9]) was 17%. The inhibition at 200 µM in experiment [2] (setting [6]) is 17%.

For `CC(C)(C)C1CCC(CO)N(c2ncnc3[nH]ccc23)C1` (stereo not shown) [AVI-3719], in experiment [1], the “Number of isomers bound” value was determined as 1. Moreover, the inhibition at 200 µM in experiment [2] (setting [9]) and in experiment [2] (setting [6]) was 36% throughout.

On to `O=C(O)C(F)(F)F.OCC1(Nc2ncnc3[nH]ccc23)CCC1` [AVI-3670], for which, in experiment [1], the “PanDDA run, TFA/DMSO background map: 1-BDC” value worked out at 0.12; the “PanDDA run, TFA/DMSO background map: Hit” value is given as “TRUE”; the “Number of isomers bound” value is 1. In experiment [2] (setting [4]), the Ki is 36 µM and the “Ligand efficiency (binding enery per heavy atom)” value is 0.38. For the same compound, in experiment [2] (setting [5]), the half-inhibitory concentration (IC50) worked out at 39 µM.

For the compound `O=C(O)C(F)(F)F.OC1([C@H]2CCCN2c2ncnc3[nH]ccc23)Cc2ccccc2C1` [AVI-3731], in experiment [1], the “PanDDA run, TFA/DMSO background map: 1-BDC” value was 0.14; the “PanDDA run, TFA/DMSO background map: Hit” value was “TRUE”; the “Number of isomers bound” value was determined as 1. Also, in experiment [2] (setting [4]), the Ki worked out at 3.4 µM and the “Ligand efficiency (binding enery per heavy atom)” value was found to be 0.31. In addition, the IC50 in experiment [2] (setting [8]) is 3.7 µM.

`CC1CCC(O)(CNc2ncnc3[nH]ccc23)CC1` (stereo not shown) [AVI-4312]: the Isomers modeled entry in experiment [1] (setting [3]) is “rr”. For the same compound, in experiment [2] (setting [4]), affinity was put at a Ki of 20 µM and the “Ligand efficiency (binding enery per heavy atom)” value came out at 0.34. Besides, the half-maximal inhibitory concentration (IC50) in experiment [2] (setting [5]) turned out to be 21 µM.

As to `OCC(O)C1CCCN1c1ncnc2[nH]ccc12` (stereo not shown) [AVI-3701], in experiment [1], the “PanDDA run, TFA/DMSO background map: 1-BDC” value is listed as 0.16; the “PanDDA run, TFA/DMSO background map: Hit” value was “TRUE”; the “Number of isomers bound” value is 1. The inhibition at 200 µM in experiment [2] (setting [9]) was determined as 54%. Besides, in experiment [2] (setting [6]), the inhibition at 200 µM was found to be 54%.

As to `CN1CCN(c2ncnc3[nH]ccc23)C(CO)C1` (stereo not shown) [AVI-3721], in experiment [1], the “Number of isomers bound” value was 1. Besides, the Isomers modeled entry in experiment [1] (setting [7]) is recorded as “R,R”. Further, the inhibition at 200 µM in experiment [2] (setting [9]) and in experiment [2] (setting [6]) was 11% throughout.

By Hill slope is commonly meant the slope factor of the fitted curve. As to `Nc1ncnc2c1ncn2[C@@H]1O[C@H](COP(=O)(O)OP(=O)(O)OC[C@H]2O[C@@H](O)[C@H](O)[C@@H]2O)[C@@H](O)[C@H]1O.[Na].[Na]` [ADP-ribose, reference compound], the X-ray crystal structure result in experiment [1] (TRUE = crystal structure with ligand obtained) is “TRUE”. The Hill slope in experiment [2] (HTRF binding curve, SARS-CoV-2 Mac1) is reported as 1.1.

With `OCC(Cc1cccs1)Nc1ncnc2[nH]ccc12` (stereo not shown) [AVI-3711], in experiment [1], the “PanDDA run, TFA/DMSO background map: 1-BDC” value was 0.16; the “PanDDA run, TFA/DMSO background map: Hit” value was “TRUE”; the “Number of isomers bound” value came to 1. The compound also displayed an Average % competition in experiment [2] of 63%. Also, the inhibition at 200 µM in experiment [2] (setting [6]) stood at 63%.

With `Cn1cc(CC(CO)Nc2ncnc3[nH]ccc23)cn1` (stereo not shown) [AVI-3657], in experiment [1], the “PanDDA run, TFA/DMSO background map: 1-BDC” value came out at 0.09; the “PanDDA run, TFA/DMSO background map: Hit” value is given as “TRUE”; the “Number of isomers bound” value stood at 1. This compound returned an Average % competition in experiment [2] of 24%. Besides, the inhibition at 200 µM in experiment [2] (setting [6]) stood at 24%.

Take `OCC1COCCN1c1ncnc2[nH]ccc12` (stereo not shown) [AVI-3717]: the “Number of isomers bound” value in experiment [1] is 2. The Isomers modeled entry in experiment [1] (setting [7]) is on record as “R,S”. Moreover, the inhibition at 200 µM in experiment [2] (setting [9]) and in experiment [2] (setting [6]) was 62% in each case.

Turning to `Cc1ccccc1CC(CO)Nc1ncnc2[nH]ccc12` (stereo not shown) [AVI-3674], in experiment [1], the “PanDDA run, TFA/DMSO background map: 1-BDC” value was 0.15; the “PanDDA run, TFA/DMSO background map: Hit” value is given as “TRUE”; the “Number of isomers bound” value was 1. This compound also came in with an Average % competition in experiment [2] of 32%. Further, the inhibition at 200 µM in experiment [2] (setting [6]) turned out to be 32%.

In the case of `CCC(O)[C@H]1CCCN1c1ncnc2[nH]ccc12` (stereo partly shown) [AVI-3666], the “Number of isomers bound” value in experiment [1] is given as 1. The “Ligand efficiency (binding enery per heavy atom)” value in experiment [2] (setting [4]) came out at 0.34.
